Data taken from BigSolDB 2.1.

## Oc1cccc(/C=N\NC(=S)NC2CCCCC2)c1
In PEG-400, 298.15 K
  solubility (mole fraction): 0.071
In PEG-400, 308.15 K
  solubility (mole fraction): 0.0774
In PEG-400, 318.15 K
  solubility (mole fraction): 0.0845
In PEG-400, 328.15 K
  solubility (mole fraction): 0.0929
In PEG-400, 338.15 K
  solubility (mole fraction): 0.101
In ethanol, 298.15 K
  solubility (mole fraction): 0.0135
In ethanol, 308.15 K
  solubility (mole fraction): 0.0141
In ethanol, 318.15 K
  solubility (mole fraction): 0.0149
In ethanol, 328.15 K
  solubility (mole fraction): 0.0156
In ethanol, 338.15 K
  solubility (mole fraction): 0.0164
In ethyl acetate, 298.15 K
  solubility (mole fraction): 0.0104
In ethyl acetate, 308.15 K
  solubility (mole fraction): 0.0117
In ethyl acetate, 318.15 K
  solubility (mole fraction): 0.0132
In ethyl acetate, 328.15 K
  solubility (mole fraction): 0.0147
In ethyl acetate, 338.15 K
  solubility (mole fraction): 0.0167
In ethylene glycol, 298.15 K
  solubility (mole fraction): 0.00185
In ethylene glycol, 308.15 K
  solubility (mole fraction): 0.00225
In ethylene glycol, 318.15 K
  solubility (mole fraction): 0.0029
In ethylene glycol, 328.15 K
  solubility (mole fraction): 0.00358
In ethylene glycol, 338.15 K
  solubility (mole fraction): 0.00454
In isopropanol, 298.15 K
  solubility (mole fraction): 0.0302
In isopropanol, 308.15 K
  solubility (mole fraction): 0.0313
In isopropanol, 318.15 K
  solubility (mole fraction): 0.0323
In isopropanol, 328.15 K
  solubility (mole fraction): 0.0335
In isopropanol, 338.15 K
  solubility (mole fraction): 0.0345
In propylene glycol, 298.15 K
  solubility (mole fraction): 0.0319
In propylene glycol, 308.15 K
  solubility (mole fraction): 0.0332
In propylene glycol, 318.15 K
  solubility (mole fraction): 0.0345
In propylene glycol, 328.15 K
  solubility (mole fraction): 0.036
In propylene glycol, 338.15 K
  solubility (mole fraction): 0.0376
In transcutol, 298.15 K
  solubility (mole fraction): 0.0938
In transcutol, 308.15 K
  solubility (mole fraction): 0.0978
In transcutol, 318.15 K
  solubility (mole fraction): 0.102
In transcutol, 328.15 K
  solubility (mole fraction): 0.106
In transcutol, 338.15 K
  solubility (mole fraction): 0.111
In water, 298.15 K
  solubility (mole fraction): 3.9e-07
In water, 308.15 K
  solubility (mole fraction): 5.85e-07
In water, 318.15 K
  solubility (mole fraction): 9.09e-07
In water, 328.15 K
  solubility (mole fraction): 1.36e-06
In water, 338.15 K
  solubility (mole fraction): 1.88e-06
